Where two headings read alike, the source gives them in different places.
Columns and labels:
human DGKα = molecular target: T1, human DGKα (Homo sapiens, UniProt P23743); assay: DGKα LIPGLO assay (extruded liposome substrate), in vitro DGK inhibition; assay type: biochemical; conditions: liposome (LIPGLO) assay; read-out: DGKa LIPGLO IC50
T1 construct: TVMV protease cleavage site (C); Hexa-His (C); made in house; host or cells: Sf9 insect cells (baculovirus, Bac-to-Bac)

human DGKζ = molecular target: T2, human DGKζ (Homo sapiens, UniProt Q13574); assay: DGKζ LIPGLO assay (extruded liposome substrate), in vitro DGK inhibition; assay type: biochemical; conditions: liposome (LIPGLO) assay; read-out: DGKz LIPGLO IC50
T2 construct: TVMV protease cleavage site (C); Hexa-His (C); made in house; host or cells: Sf9 insect cells (baculovirus, Bac-to-Bac)
T2 sequence (Q13574 with tags, fused parts or gaps isoform Q13574-4): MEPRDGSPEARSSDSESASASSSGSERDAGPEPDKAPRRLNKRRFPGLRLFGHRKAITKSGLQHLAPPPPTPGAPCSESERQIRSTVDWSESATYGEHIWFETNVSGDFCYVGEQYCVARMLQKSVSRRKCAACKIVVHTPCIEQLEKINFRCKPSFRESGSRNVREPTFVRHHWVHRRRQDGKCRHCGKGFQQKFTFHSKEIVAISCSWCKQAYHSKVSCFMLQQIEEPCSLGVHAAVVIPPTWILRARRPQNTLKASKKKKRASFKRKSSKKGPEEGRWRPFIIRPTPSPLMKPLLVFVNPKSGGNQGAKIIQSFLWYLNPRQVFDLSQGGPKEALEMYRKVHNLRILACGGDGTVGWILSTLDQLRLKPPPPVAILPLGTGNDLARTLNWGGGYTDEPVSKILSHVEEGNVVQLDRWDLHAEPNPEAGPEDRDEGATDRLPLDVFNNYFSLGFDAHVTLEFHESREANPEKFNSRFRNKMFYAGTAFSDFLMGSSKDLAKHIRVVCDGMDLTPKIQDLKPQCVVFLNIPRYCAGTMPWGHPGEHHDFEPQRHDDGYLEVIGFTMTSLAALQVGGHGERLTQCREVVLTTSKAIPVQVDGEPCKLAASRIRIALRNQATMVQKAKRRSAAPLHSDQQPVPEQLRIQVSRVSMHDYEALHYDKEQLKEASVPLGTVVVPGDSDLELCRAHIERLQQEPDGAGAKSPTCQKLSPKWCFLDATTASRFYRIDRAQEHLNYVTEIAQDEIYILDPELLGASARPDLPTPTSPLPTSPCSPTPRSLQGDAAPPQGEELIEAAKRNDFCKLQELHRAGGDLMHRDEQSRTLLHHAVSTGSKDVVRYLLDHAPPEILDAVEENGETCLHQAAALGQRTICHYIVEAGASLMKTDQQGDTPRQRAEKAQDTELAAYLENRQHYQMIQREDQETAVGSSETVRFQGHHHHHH

naïve human CD8 T cells = assay: Human CD8 T cells IFN-γ assay; assay type: cell-based; conditions: normalized to 3 μM reference compound with anti-CD3 plus anti-CD28 as 100% activation, read-out: HuCD8 INFG Normalized EC50;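 also: Naïve human CD8 T cells stimulated with plate-bound anti-CD3 and soluble anti-CD28, IFN-γ in supernatant quantified by AlphaLISA and converted to pg/mL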
Human venous whole blood = assay: Human whole blood IFN-γ assay; assay type: cell-based; conditions: human whole blood, normalized to 3 μM reference compound with anti-CD3 plus anti-CD28 as 100% activation, read-out: INFg Whole Blood Normalized Agonist EC50;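 also: blood from healthy donors exposed to compound for 1 h before stimulation with anti-CD3 and anti-CD28 at 1 µg/mL each, IFN-γ quantified in supernatant by AlphaLISA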

T1 sequence (P23743 with tags, fused parts or gaps): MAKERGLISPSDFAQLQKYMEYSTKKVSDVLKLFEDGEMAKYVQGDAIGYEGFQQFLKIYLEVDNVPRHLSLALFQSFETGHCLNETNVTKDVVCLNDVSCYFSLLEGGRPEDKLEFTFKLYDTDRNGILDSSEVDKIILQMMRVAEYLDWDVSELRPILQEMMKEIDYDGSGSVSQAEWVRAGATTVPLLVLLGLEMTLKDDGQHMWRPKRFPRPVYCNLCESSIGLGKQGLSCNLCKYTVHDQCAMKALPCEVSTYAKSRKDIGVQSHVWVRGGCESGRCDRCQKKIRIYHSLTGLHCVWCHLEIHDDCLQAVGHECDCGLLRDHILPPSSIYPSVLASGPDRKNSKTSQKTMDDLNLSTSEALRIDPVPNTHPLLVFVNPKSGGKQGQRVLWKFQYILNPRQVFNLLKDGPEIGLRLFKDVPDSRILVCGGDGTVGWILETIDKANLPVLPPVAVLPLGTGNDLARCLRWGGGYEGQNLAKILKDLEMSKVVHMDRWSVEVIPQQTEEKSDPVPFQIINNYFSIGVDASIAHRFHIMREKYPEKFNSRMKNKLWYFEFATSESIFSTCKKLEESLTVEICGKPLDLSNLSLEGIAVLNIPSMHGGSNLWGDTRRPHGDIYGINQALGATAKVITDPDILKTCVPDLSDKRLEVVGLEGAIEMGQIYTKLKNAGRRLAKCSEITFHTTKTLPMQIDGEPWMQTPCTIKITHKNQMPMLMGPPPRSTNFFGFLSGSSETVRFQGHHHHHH

Row | IC50 (human DGKα) | IC50 (human DGKζ) | SMILES | EC50 (naïve human CD8 T cells) | EC50 (Human venous whole blood) | EC50 (naïve human CD8 T cells; Homo sapiens, T-cell, 20 h) | EC50 (Human venous whole blood; Homo sapiens, 24 h)
1 | 570 nM | 2500 nM | Cc1ccc(C(c2ccc(C#N)cc2)N2C[C@H](C)N(c3cc(=O)n(C)c4ccc(C#N)nc34)C[C@H]2C)nc1 (single isomer, unassigned) [Example 360] | – | 310 nM | 130 nM | –
2 | 230 nM | 340 nM | Cc1ccnc(C(c2ccc(Cl)cc2)N2C[C@H](C)N(c3cc(=O)n(C)c4ccc(C#N)nc34)C[C@H]2C)c1 (single isomer, unassigned) [Example 362] | – | – | 230 nM | 720 nM
3 | 150 nM | 400 nM | Cc1ccc(C(c2ccc(Cl)cc2)N2C[C@H](C)N(c3cc(=O)n(C)c4ccc(C#N)nc34)C[C@H]2C)nc1 (single isomer, unassigned) [Example 363] | – | 130 nM | 99 nM | –
4 | 2800 nM | 1400 nM | Cc1ccc(C(c2cccc(Cl)c2)N2C[C@H](C)N(c3cc(=O)n(C)c4ccc(C#N)nc34)C[C@H]2C)nc1 (single isomer, unassigned) [Example 369] | 150 nM | – | – | 480 nM
5 | 550 nM | 270 nM | Cc1ccc(C(c2cccc(Cl)c2)N2C[C@H](C)N(c3cc(=O)n(C)c4ccc(C#N)nc34)C[C@H]2C)nc1 (single isomer, unassigned) [Example 372] | 22 nM | 270 nM | – | –
6 | 6500 nM | 740 nM | Cc1ccc(C(c2ccc(C)c(Cl)c2)N2C[C@H](C)N(c3cc(=O)n(C)c4ccc(C#N)nc34)C[C@H]2C)nc1 (single isomer, unassigned) [Example 373] | – | – | 180 nM | 320 nM
7 | 270 nM | 2700 nM | C[C@@H]1CN(c2cc(=O)n(C)c3ccc(C#N)nc23)[C@@H](C)CN1C(c1ccc(F)c(F)c1)c1ccccn1 (single isomer, unassigned) [Example 375] | – | – | 49 nM | 330 nM
8 | 2900 nM | 1100 nM | C[C@@H]1CN(c2cc(=O)n(C)c3ccc(C#N)nc23)[C@@H](C)CN1C(c1ccc(F)c(F)c1)c1ccccn1 (single isomer, unassigned) [Example 376] | 28 nM | 380 nM | – | –
9 | 360 nM | 500 nM | C[C@@H]1CN(c2cc(=O)n(C)c3ccc(C#N)nc23)[C@@H](C)CN1C(c1ccc(Cl)cc1)c1ccccn1 (single isomer, unassigned) [Example 381] | – | 180 nM | 3.9 nM | –
10 | 2200 nM | 1100 nM | Cc1nccc(C(c2ccc(F)cc2)N2C[C@H](C)N(c3cc(=O)n(C)c4ccc(C#N)nc34)C[C@H]2C)n1 (single isomer, unassigned) [Example 389] | – | 280 nM | 25 nM | –
11 | 180 nM | 2100 nM | C[C@@H]1CN(c2cc(=O)n(C)c3ccc(C#N)nc23)[C@@H](C)CN1C(c1ccc(F)cc1)c1ccncn1 (single isomer, unassigned) [Example 392] | – | – | 66 nM | 330 nM
12 | 1400 nM | 110 nM | Cc1cccc(C(c2ccc(Cl)cc2)N2C[C@H](C)N(c3cc(=O)n(C)c4ccc(C#N)nc34)C[C@H]2C)n1 (single isomer, unassigned) [Example 443] | – | – | 94 nM | 370 nM
13 | 130 nM | 760 nM | Cc1ccc(C(c2ccc(F)cn2)N2C[C@H](C)N(c3cc(=O)n(C)c4ccc(C#N)nc34)C[C@H]2C)cc1 (single isomer, unassigned) [Example 444] | – | – | 49 nM | 510 nM
14 | 1000 nM | 2400 nM | Cc1ccnc(C(c2ccc(F)cc2)N2C[C@H](C)N(c3cc(=O)n(C)c4ccc(C#N)nc34)C[C@H]2C)c1 (single isomer, unassigned) [Example 455] | – | – | 97 nM | 740 nM
15 | 30 nM | 38 nM | Cc1ccc(C(c2cc(C)ccn2)N2C[C@H](C)N(c3cc(=O)n(C)c4ccc(C#N)nc34)C[C@H]2C)cc1 (single isomer, unassigned) [Example 460] | – | 520 nM | 27 nM | –

Second part, the molecule before the results:

Row | SMILES | IC50 (human DGKα) | IC50 (human DGKζ) | EC50 (naïve human CD8 T cells) | EC50 (Human venous whole blood) | EC50 (naïve human CD8 T cells; Homo sapiens, T-cell, 20 h) | EC50 (Human venous whole blood; Homo sapiens, 24 h)
16 | CCc1ccc(C(c2cccc(F)c2)N2C[C@H](C)N(c3cc(=O)n(C)c4ccc(C#N)nc34)C[C@H]2C)nc1 (single isomer, unassigned) [Example 350] | 1900 nM | 1800 nM | 200 nM | 850 nM | – | –
17 | CCc1ccc(C(c2cccc(F)c2)N2C[C@H](C)N(c3cc(=O)n(C)c4ccc(C#N)nc34)C[C@H]2C)nc1 (single isomer, unassigned) [Example 351] | 640 nM | 1300 nM | 31 nM | 89 nM | – | –
18 | C[C@@H]1CN(c2cc(=O)n(C)c3ccc(C#N)nc23)[C@@H](C)CN1C(c1ccc(F)cc1)C1CCCCO1 (single isomer, unassigned) [Example 359] | 280 nM | 1100 nM | – | 660 nM | 38 nM | –
19 | C[C@@H]1CN(c2cc(=O)n(C)c3ccc(C#N)nc23)[C@@H](C)CN1C(c1ccc(OC(F)(F)F)cc1)c1cccc(F)n1 (single isomer, unassigned) [Example 367] | 1300 nM | 2700 nM | – | – | 13 nM | 460 nM
20 | C[C@@H]1CN(c2cc(=O)n(C)c3ccc(C#N)nc23)[C@@H](C)CN1C(c1ccc(OC(F)(F)F)cc1)c1cccc(F)n1 (single isomer, unassigned) [Example 368] | 1700 nM | 2500 nM | 10 nM | 460 nM | – | –
21 | C[C@@H]1CN(c2cc(=O)n(C)c3ccc(C#N)nc23)[C@@H](C)CN1C(c1ccc(OC(F)(F)F)cc1)c1ccccn1 (single isomer, unassigned) [Example 378] | 690 nM | 2500 nM | – | – | 5.3 nM | 490 nM
22 | Cc1ccc(C(c2cncc(F)c2)N2C[C@H](C)N(c3cc(=O)n(C)c4ccc(C#N)nc34)C[C@H]2C)cc1 (single isomer, unassigned) [Example 391] | 3100 nM | 2400 nM | – | 890 nM | 81 nM | –
23 | [2H]C(C)(c1ccc(F)cc1)N1C[C@H](C)N(c2c(F)c(=O)n(C)c3ccc(C#N)nc23)C[C@H]1C (single isomer, unassigned) [Example 425] | 58 nM | 1500 nM | – | 270 nM | 110 nM | –
24 | CC(c1c(F)cc(F)cc1F)N1C[C@H](C)N(c2cc(=O)n(C)c3ccc(C#N)nc23)C[C@H]1C (single isomer, unassigned) [Example 432] | 510 nM | 500 nM | – | – | 15 nM | 67 nM
25 | CC(c1ccc(C(F)(F)F)cc1F)N1C[C@H](C)N(c2cc(=O)n(C)c3ccc(C#N)nc23)C[C@H]1C (single isomer, unassigned) [Example 434] | 1800 nM | 700 nM | – | – | 5.7 nM | 600 nM
26 | C[C@@H]1CN(c2cc(=O)n(C)c3ccc(C#N)nc23)[C@@H](C)CN1C(c1ccc(F)cc1)c1cccc(F)n1 (single isomer, unassigned) [Example 471] | 250 nM | 520 nM | – | – | 200 nM | 570 nM
27 | C[C@@H]1CN(c2cc(=O)n(C)c3ccc(C#N)nc23)[C@@H](C)CN1C(c1ccc(Cl)cc1)c1ccc2c(c1)OC(F)(F)O2 (single isomer, unassigned) [Example 657] | 2400 nM | 1600 nM | – | – | 27 nM | 660 nM
28 | C[C@@H]1CN(c2cc(=O)n(C)c3ccc(C#N)nc23)[C@@H](C)CN1C(c1ccc(F)cc1)c1ccc(C(F)F)cc1 (single isomer, unassigned) [Example 666] | 720 nM | 2000 nM | 5.6 nM | – | – | 920 nM
29 | C[C@@H]1CN(c2cc(=O)n(C)c3ccc(C#N)nc23)[C@@H](C)CN1C(c1ccc(F)cc1)c1ccc(C(F)F)cc1 (single isomer, unassigned) [Example 667] | 2800 nM | 2700 nM | 27 nM | 850 nM | – | –
30 | C[C@@H]1CN(c2cc(=O)n(C)c3ccc(C#N)nc23)[C@@H](C)CN1C(c1ccccn1)c1ccc(F)cc1F (single isomer, unassigned) [Example 682] | 580 nM | 1500 nM | – | 320 nM | 39 nM | –
31 | C[C@@H]1CN(c2cc(=O)n(C)c3ccc(C#N)nc23)[C@@H](C)CN1C(c1ccc(F)cn1)c1ccc(F)cc1F (single isomer, unassigned) [Example 685] | 300 nM | 1000 nM | – | 100 nM | 12 nM | –
32 | COc1ccc(C(c2cccc(F)c2)N2C[C@H](C)N(c3cc(=O)n(C)c4ccc(C#N)nc34)C[C@H]2C)nc1 (single isomer, unassigned) [Example 687] | 1600 nM | 730 nM | – | 270 nM | 17 nM | –
33 | C[C@@H]1CN(c2cc(=O)n(C)c3ccc(C#N)nc23)[C@@H](C)CN1C(c1ccc(F)cc1)c1ccon1 (single isomer, unassigned) [Example 707] | 150 nM | 1700 nM | – | 400 nM | 44 nM | –
34 | C[C@@H]1CN(c2cc(=O)n(C)c3ccc(C#N)nc23)[C@@H](C)CN1C(c1ccc(F)cc1)c1cocn1 (single isomer, unassigned) [Example 710] | 120 nM | 2600 nM | – | 550 nM | 22 nM | –

Source: patent US10669272B2, “Substituted naphthyridinone compounds useful as T cell activators” (BRISTOL-MYERS SQUIBB COMPANY, priority 2018, dated 2020)
